Experimental data reported in PMC4168161, “A novel approach for the discovery of chemically diverse anti-malarial compounds targeting the Plasmodium falciparum Coenzyme A synthesis pathway” (Malaria Journal, 2014).

How the values were obtained:
3D7 parasites = assay: Time course for parasite stage affected and phenotype (Giemsa smears); format: cell-based, Plasmodium falciparum; details: for parasite stage of action / phenotype: compound at IC80, 0-48 hr
Protocol: The principle of the P. falciparum imaging assay described above was used, with the exception that the parasite synchronization was adjusted to yield parasites synchronized to a 2-hr window as established in-house. In brief, sorbitol synchronization was performed twice (approximately 8 hr apart) on day 1 and only once on day 3 (around 10.00). Schizonts observed on day 4 were left to mature and when rings were first observed, the mature schizonts were isolated using a MACS® column (Miltenyi Biotec). The purified schizonts were incubated for 2 hr at 37°C, 5% CO2 and 5% O2 and 90% N2 on a shaker. The obtained 0-2 hr old ring stage parasites were isolated by removing the remaining schizonts by flow through a MACS® column and the highly synchronized rings obtained were seeded in the assay plates with the compounds as described above. At each time point, one whole columns (16 wells) of identically treated parasites, i.e., 0.4% DMSO as control, compound at its individual IC80 or compound at IC80 plus CoA, were pooled and centrifuged. A smear was made from the pellet and stained with Giemsa (Sigma) for assessment the phenotype of treated parasites with or without supplementation of 0.8 mM CoA in comparison to DMSO controls.
The parasite viability assay used above is an endpoint assay that spans two development cycles of the parasite. To investigate the parasite stage of action of the identified compounds and the phenotype of compound treated parasites, a light microscopy-based time course study was undertaken. The seven compounds of submicromolar activity were added at time point t0 at their respective IC80 concentrations, with and without the addition of 0.8 mM CoA. The 3D7 parasites used in this experiment were age synchronized to within a 2-hr window of the ring stage. Due to assay preparation time, the parasite age at t0 therefore ranged from 0.5 hr to 2.5 hr.
At t0, t18, t24 and t48 parasite cultures for all conditions were centrifuged and Giemsa-stained blood smears were prepared. The 18-hr treatment time point was specifically chosen, since it was expected to see the transition between ring and trophozoite stage in control cultures around this time point (parasite age range 18.5 hr to […]). Therefore any delay in the transition from ring to trophozoite stage under treatment with the compounds was expected to be discernible at this time point.

[1] = test system: Plasmodium falciparum strain 3D7; assay: Plasmodium falciparum growth inhibition imaging assay; format: cell-based; details: for SI (selectivity index): HEK293 IC50 value divided by P. falciparum IC50 value; for IC50: P. falciparum 3D7, 72 hr, n = 3
Protocol: In vitro parasite culture was maintained in RPMI with 10 mM Hepes (Life Technologies), 50 μg/ml hypoxanthine (Sigma) and 5 mg/ml AlbuMAX II® (Life Technologies). Human O + erythrocytes were obtained from the Australian Red Cross Blood Service (Agreement No: 13-04QLD-09). The parasites were maintained at 2-8% parasitaemia (% P) at 5% haematocrit (% H), incubated at 37°C, 5% CO2, 5%O2 and 90% N2 and 95% humidity. The well-established P. falciparum imaging assay was modified to allow assessment of chemical rescue with CoA. In brief, sorbitol (5% w/v) synchronization was performed twice, approximately 8 hr apart, on each synchronization day for two consecutive ring cycles, i.e., on day 1 and 3 of assay preparation. On day 2 the culture was split to approximately 2% trophozoite parasitaemia. On day 4 the culture was split to 1-1.5% trophozoite parasitaemia, which yielded approximately 8% ring parasitaemia after 48 hr (on day 5, i.e., the day of the assay set-up). Compound stocks (10 mM in 100% DMSO) were diluted 1:25 in sterile water, less than 24 hr prior to use. An additional 1:10 dilution was performed, resulting in a 1:250 overall compound dilution and a final DMSO concentration of 0.4%. For initial screening, compounds were tested at a final 2 μM concentration. For dose response curves of the active compounds, a semi-logarithmic serial dilution (containing three data points per log) was prepared at 40 μM top concentration for test compounds and 2 μM for the positive control, artemisinin. The known P. falciparum CoA synthesis inhibitor, panthenol, was prepared as a 100 mM solution in 4% DMSO. The final concentration of the dose response curve of panthenol started at 10 mM and was serially diluted down to 100 nM. CoA was dissolved in water. The final CoA concentration for optimal rescue results was determined for each CoA batch and ranged between 0.8-2 mM. Five μl of the 1:25 diluted test compound or control solutions were added to 384-well CellCarrier imaging plates (PerkinElmer). For the chemical rescue, 5 μl of CoA solution were added to ‘rescue’ wells and 5 μl water to all control and reference wells, respectively. Parasite culture was added to a final concentration of 1% parasitaemia (% P) and 0.3% haematocrit (% H). Plates were incubated for 72 hr at 37°C, 5% CO2 and 95% humidity. On day 8 the permeabilization and nuclear staining buffer was prepared in PBS containing 10 μg/ml saponin, 0.01% triton X, 5 mM EDTA (all: Sigma) and 0.5 μg/ml 4′,6-diamidino-2-phenylindole (DAPI; Life Technologies). The plates were left for at least 4 hr (typically overnight), before confocal imaging on an Opera™ High Content Screening Platform (PerkinElmer) at 405 nm excitation with a 20x water objective. Automated primary image analysis was performed concurrent with the imaging process, utilizing an Acapella® software (PerkinElmer) script to determine the number of parasites based on object size and fluorescence intensity. Determination of the % growth compared to controls (2 μM artemisinin as positive and 0.4% DMSO as negative control) was performed in Microsoft® Excel 2010. Statistical analysis including IC50 determination and graphical output was performed in GraphPad Prism® 5 using non-linear regression variable slope curve fitting.

HEK293 cells = assay: CoA chemical rescue on HEK293 cells; format: cell-based, human; details: dose response with and without CoA, n = 2
Protocol: To assess cytotoxicity of compounds in dose response, a resazurin-based assay was utilized to determine cell viability. In brief, HEK293 cells were grown in DMEM medium (Life Technologies) containing 10% foetal calf serum (FCS; Gibco). Cells were trypsinized, counted and seeded at 2,000 cells per well in 45 μl media into TC-treated 384-well plates (Falcon) and left to adhere overnight at 37°C, 5% CO2 and 95% humidity.
Plates were incubated for 72 hr at 37°C, 5% CO2 and 95% humidity, then the media was removed and replaced by 35 μl of 44 μM resazurin in DMEM without FCS. The plates were incubated for another 4-6 hr at 37°C, 5% CO2 and 95% humidity before reading on an EnVision® Plate Reader (PerkinElmer) using fluorescence excitation/emission settings of 530 nm/595 nm. Determination of the% growth compared to controls (40 μM puromycin as positive and 0.4% DMSO as negative control) was performed in Microsoft® Excel 2010. Statistical analysis including IC50 determination and graphical output was performed in GraphPad Prism® 5 using nonlinear regression variable slope curve fitting.

[2] = compound at IC80 plus 0.8 mM CoA
[3] = compound at IC80 plus 0.8 mM CoA, t24
[4] = compound at IC80 plus 0.8 mM CoA, t48

Compound | parasite stage of action / phenotype (3D7 parasites) | CoA rescue of stage progression / phenotype (3D7 parasites; [2]) | SI (selectivity index) [1] | IC50 [1] | further results
COc1ccc2c(=O)cc(C(Cl)(Cl)Cl)oc2c1 [MMV665820/5534045] | main compound action is on the trophozoite stage | CoA addition effectively rescued both parasite development and morphology | 6.2 | 580 nM | relative parasitaemia of trophozoites showing abnormal morphology (3D7 parasites; compound at IC80, t24): 42.9%; relative parasitaemia of dead or dying trophozoites (3D7 parasites; compound at IC80, t48): 13.8%; relative parasitaemia of trophozoites showing abnormal morphology (3D7 parasites; compound at IC80, t48): 26.6%
CC(=O)c1ccc2c3c(onc13)-c1ccccc1C2=O [Amb3377585] | killing both the ring and the trophozoite stage of the parasite from approximately t24 | very good rescue of parasite development, death rates and morphology | 18 | 150 nM | death rate of parasites (relative parasitaemia) (3D7 parasites; compound at IC80, from t24 onwards): 49%; abnormal trophozoites as share of all counted living trophozoites (3D7 parasites; compound at IC80, t48): 51%; relative parasitaemia of trophozoites showing abnormal morphology (3D7 parasites; compound at IC80, t48): 30.5%
CC1=CC(=O)C(C(C)C)=C/C1=N/OS(=O)(=O)c1ccccc1 [STK 740987] | no change in the stage composition of rings and trophozoites compared to the controls | – | > 105 | 380 nM | dead or dying parasites (relative parasitaemia) (3D7 parasites; compound at IC80, t24): around 16%
Cc1csc(Sc2ncnc3sccc23)n1 [Amb180780] | arrest parasite development at the ring stage | rescued very well by CoA addition | ~ 333 | 120 nM | compound-treated parasites able to progress from the ring to the trophozoite stage (3D7 parasites; compound at IC80): Less than 13%; dead or dying parasites (relative parasitaemia) (3D7 parasites; compound at IC80, t48): 28.6%; dead or dying parasites (relative parasitaemia) (3D7 parasites; [3]): 20%; dead or dying parasites (relative parasitaemia) (3D7 parasites; [4]): control levels
CCOc1ccc(Nc2c3ccccc3nc3ccccc23)cc1.Cl [MMV000304/Amb636705] | – | – | 0.8 | 1210 nM | cytotoxic effect on HEK293 cells upon CoA addition (HEK293 cells): reduced upon CoA addition; SI (selectivity index) ([1]; listed as MMV000304): no parasite specificity
CC(C)=NOC(=O)c1c(C)noc1-c1snnc1C [SPB03400] | No change in the relative parasitaemia of rings or trophozoites compared to the untreated controls | – | – | 450 nM | ring form parasites showing abnormal morphologies (3D7 parasites; compound at IC80, t48): around 50%
CCc1ccc(Nc2cc(C)c3ccc(O)cc3n2)cc1.Cl [MMV000570/C614-0191] | affects both the development of the ring and trophozoite stage of the parasite | Addition of CoA did not alleviate this developmental delay | ~ 54 | 740 nM | dead or dying parasites (relative parasitaemia) (3D7 parasites; compound at IC80, t24): around 28%; dead or dying parasites (relative parasitaemia) (3D7 parasites; compound at IC80, t48): ~20%; dead or dying parasites (relative parasitaemia) (3D7 parasites; [3]): 13.4%; dead or dying parasites (relative parasitaemia) (3D7 parasites; [4]): 8.3%
